Experimental findings from ChEMBL document CHEMBL1154949, “2-Amino-aryl-7-aryl-benzoxazoles as potent, selective and orally available JAK2 inhibitors” (Bioorg Med Chem Lett, 2010) are described below.

Data set [1] addresses Non-receptor tyrosine-protein kinase TYK2 (Homo sapiens, UniProt P29597). Kind of data set: Inhibition of GST-tagged TYK2 assessed as inhibition of biotinylated IRS1 substrate phosphorylation after 60 mins by caliper mobility shift assay.
The target in data set [2] is T1, Tyrosine-protein kinase JAK3 (Homo sapiens, UniProt P52333).
T1 sequence (P52333 whole entry): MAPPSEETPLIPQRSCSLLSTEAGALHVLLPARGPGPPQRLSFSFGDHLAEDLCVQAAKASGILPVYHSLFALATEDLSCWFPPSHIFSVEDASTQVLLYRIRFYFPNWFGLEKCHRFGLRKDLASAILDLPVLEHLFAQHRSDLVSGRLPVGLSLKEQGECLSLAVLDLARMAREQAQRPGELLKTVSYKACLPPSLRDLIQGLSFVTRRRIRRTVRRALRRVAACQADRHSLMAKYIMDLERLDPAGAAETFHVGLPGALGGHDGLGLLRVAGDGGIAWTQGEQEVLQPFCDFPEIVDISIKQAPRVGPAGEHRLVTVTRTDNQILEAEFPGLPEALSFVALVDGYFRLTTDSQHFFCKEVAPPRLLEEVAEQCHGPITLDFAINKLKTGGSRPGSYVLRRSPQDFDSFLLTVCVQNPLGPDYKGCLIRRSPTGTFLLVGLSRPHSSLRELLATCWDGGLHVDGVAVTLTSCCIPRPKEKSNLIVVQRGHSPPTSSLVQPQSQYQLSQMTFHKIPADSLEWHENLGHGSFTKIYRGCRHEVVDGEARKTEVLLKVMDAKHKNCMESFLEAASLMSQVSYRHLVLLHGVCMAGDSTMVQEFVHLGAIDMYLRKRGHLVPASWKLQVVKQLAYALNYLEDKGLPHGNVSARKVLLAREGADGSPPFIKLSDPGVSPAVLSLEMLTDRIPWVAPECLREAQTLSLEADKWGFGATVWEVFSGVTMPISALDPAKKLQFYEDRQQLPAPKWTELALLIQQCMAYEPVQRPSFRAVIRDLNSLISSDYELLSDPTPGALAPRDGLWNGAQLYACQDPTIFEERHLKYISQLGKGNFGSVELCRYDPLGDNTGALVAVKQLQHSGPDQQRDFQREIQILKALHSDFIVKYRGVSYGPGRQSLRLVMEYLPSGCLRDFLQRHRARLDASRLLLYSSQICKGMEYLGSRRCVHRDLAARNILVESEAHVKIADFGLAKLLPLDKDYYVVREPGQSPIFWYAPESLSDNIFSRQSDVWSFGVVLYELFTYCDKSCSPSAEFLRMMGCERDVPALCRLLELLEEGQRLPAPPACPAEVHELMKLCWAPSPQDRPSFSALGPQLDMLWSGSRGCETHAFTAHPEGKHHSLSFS
Nature of the data set: Inhibition of GST-tagged JAK3 assessed as inhibition of biotinylated JAK3tide peptide phosphorylation after 60 mins by caliper mobility shift assay.

In data set [3] the target is Tyrosine-protein kinase JAK1 (Homo sapiens, UniProt P23458). Nature of the data set: Inhibition of GST-tagged JAK1 assessed as inhibition of biotinylated IRS1 substrate phosphorylation after 60 mins by caliper mobility shift assay.
Sequence of Tyrosine-protein kinase JAK1 (P23458 whole entry): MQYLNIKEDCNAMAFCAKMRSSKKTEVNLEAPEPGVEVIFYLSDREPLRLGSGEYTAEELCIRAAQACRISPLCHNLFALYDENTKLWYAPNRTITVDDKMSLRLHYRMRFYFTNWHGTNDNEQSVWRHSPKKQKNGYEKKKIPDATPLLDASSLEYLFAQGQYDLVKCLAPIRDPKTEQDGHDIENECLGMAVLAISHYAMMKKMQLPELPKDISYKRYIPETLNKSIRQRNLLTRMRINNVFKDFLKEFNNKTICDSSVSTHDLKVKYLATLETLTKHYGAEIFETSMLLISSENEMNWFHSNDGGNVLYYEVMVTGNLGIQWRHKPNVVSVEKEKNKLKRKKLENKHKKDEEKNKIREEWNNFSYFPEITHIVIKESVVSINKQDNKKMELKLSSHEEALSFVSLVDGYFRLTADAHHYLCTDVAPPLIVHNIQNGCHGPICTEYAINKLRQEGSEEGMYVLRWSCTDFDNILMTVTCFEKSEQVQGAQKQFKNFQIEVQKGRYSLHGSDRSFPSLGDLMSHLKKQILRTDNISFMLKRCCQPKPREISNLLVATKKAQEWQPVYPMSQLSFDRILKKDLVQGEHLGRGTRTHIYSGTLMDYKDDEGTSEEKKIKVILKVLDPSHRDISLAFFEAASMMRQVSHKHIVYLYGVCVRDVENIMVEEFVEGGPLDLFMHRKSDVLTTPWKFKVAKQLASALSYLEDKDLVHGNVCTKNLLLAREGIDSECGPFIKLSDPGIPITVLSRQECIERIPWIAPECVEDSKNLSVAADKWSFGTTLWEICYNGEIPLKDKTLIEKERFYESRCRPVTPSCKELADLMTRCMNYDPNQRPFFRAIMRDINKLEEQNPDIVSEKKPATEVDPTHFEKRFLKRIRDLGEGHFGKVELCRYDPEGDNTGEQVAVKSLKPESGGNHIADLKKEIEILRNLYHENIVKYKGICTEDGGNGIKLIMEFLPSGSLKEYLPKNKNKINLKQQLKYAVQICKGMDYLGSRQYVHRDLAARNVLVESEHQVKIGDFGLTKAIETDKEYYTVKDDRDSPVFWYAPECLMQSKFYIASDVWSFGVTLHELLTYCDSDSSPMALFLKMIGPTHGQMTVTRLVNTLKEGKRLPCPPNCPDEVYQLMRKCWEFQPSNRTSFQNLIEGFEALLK
The target of data set [4] is Tyrosine-protein kinase JAK2 (Homo sapiens, UniProt O60674). Kind of data set: Inhibition of GST-tagged JAK2 assessed as inhibition of biotinylated JAK3tide peptide phosphorylation after 60 mins by caliper mobility shift assay.
Sequence of Tyrosine-protein kinase JAK2 (O60674 whole entry): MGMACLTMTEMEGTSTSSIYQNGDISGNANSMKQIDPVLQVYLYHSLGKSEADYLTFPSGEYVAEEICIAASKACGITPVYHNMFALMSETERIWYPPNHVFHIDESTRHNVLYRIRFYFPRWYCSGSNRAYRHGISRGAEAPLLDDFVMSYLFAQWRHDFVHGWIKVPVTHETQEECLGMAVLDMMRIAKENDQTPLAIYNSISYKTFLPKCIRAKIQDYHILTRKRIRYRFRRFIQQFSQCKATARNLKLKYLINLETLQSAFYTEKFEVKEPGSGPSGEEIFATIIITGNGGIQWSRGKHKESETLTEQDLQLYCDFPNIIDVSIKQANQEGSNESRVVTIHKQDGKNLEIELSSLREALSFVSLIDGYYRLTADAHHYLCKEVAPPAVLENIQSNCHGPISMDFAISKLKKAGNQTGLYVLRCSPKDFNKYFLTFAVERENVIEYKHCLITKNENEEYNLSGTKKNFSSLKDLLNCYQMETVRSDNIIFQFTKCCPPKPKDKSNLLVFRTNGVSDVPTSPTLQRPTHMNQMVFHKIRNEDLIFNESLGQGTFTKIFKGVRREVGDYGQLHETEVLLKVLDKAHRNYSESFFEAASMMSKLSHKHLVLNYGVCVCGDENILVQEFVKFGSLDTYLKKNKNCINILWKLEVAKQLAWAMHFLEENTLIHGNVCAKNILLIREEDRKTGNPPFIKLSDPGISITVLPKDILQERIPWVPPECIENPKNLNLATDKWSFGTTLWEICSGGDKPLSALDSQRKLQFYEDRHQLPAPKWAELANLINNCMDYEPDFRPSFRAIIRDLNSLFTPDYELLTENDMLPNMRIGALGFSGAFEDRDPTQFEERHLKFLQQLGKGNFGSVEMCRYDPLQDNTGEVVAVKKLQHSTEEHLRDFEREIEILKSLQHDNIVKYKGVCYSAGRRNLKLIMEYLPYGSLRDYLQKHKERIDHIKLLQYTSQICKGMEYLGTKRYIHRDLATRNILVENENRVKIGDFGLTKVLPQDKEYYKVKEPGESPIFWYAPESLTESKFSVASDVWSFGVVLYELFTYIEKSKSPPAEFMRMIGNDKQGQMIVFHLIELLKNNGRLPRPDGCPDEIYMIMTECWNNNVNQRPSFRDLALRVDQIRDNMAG
Data set [5] in a line: Antiproliferative activity against human SET2 cells harboring JAK2 V617F mutant after 72 hrs by […]. It counts as functional. The note with it: SET-2, 72 h.
A short description of data set [6]: Volume of distribution at steady state in rat at 0.5 ml/kg, iv. It counts as ADME, organism-based. The note with it: in vivo, read-out: Vdss.
Data set [7] can be described thus: Oral bioavailability in rat at 2.5 ml/kg. It counts as ADME, organism-based. Conditions: in vivo.
Data set [8] in a line: Terminal half life in rat at 0.5 ml/kg, iv. Type of data set: ADME, organism-based. Conditions: in vivo.
Data set [9] concerns Rattus norvegicus. Nature of the data set: Dose normalized AUC in rat at 1 mg/kg, iv. Type of data set: ADME, organism-based. On the set-up: dose 1 mg/kg, route intravenous. Conditions: in vivo.
A short description of data set [10]: Tmax in rat at 2.5 ml/kg, po. It counts as ADME, organism-based. Conditions: in vivo.
Data set [11] relates to Rattus norvegicus. Nature of the data set: Dose normalized AUC in rat at 1 mg/kg, po. Type of data set: ADME, organism-based. More on the design: dose 1 mg/kg, route oral. The note with it: in vivo.
Data set [12] in a line: Cmax in rat at 2.5 ml/kg, po. It counts as ADME, organism-based. On the set-up: dose 2.5 ml/kg, route oral. Conditions: in vivo.
The nature of data set [13]: Clearance in rat at 0.5 ml/kg, iv. Conditions: in vivo. Type of data set: ADME, organism-based.

Sequence of Non-receptor tyrosine-protein kinase TYK2 (P29597 whole entry): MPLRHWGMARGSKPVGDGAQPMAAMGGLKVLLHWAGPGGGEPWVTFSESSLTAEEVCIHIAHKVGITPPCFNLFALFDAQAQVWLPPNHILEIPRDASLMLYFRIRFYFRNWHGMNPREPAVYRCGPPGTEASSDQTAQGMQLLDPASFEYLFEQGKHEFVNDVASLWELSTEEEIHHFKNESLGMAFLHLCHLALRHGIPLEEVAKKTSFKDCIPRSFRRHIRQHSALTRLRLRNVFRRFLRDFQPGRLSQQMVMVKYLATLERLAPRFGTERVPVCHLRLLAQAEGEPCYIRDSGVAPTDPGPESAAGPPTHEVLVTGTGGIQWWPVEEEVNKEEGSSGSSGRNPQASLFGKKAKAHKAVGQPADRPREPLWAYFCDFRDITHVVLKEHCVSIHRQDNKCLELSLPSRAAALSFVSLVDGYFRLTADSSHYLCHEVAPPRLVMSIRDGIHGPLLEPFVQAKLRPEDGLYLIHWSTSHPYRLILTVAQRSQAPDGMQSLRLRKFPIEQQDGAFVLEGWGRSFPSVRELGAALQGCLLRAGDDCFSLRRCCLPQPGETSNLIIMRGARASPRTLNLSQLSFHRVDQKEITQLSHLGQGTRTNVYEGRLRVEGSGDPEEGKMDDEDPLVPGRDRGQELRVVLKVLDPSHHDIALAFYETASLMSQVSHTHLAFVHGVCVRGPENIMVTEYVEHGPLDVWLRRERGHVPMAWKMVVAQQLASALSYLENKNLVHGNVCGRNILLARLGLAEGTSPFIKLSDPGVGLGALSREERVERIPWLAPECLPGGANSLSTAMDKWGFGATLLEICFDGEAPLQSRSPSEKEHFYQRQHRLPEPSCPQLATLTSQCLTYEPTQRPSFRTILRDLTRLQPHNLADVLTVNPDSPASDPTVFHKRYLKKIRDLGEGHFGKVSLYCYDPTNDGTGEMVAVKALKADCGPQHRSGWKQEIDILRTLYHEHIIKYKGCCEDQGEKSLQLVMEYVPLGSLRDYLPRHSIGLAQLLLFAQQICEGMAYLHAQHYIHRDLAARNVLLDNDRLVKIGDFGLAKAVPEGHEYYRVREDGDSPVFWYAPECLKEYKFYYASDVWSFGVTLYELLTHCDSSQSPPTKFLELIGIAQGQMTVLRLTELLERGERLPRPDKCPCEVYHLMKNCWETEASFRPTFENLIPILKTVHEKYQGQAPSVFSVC

The IC50 is the midpoint of a concentration-inhibition curve. With `COc1cc(Nc2nc3cccc(-c4ccccc4)c3o2)cc(OC)c1OC`, the figures for the IC50 in data set [1], in data set [2] and in [3] were 3400 nM, over 10000 nM and 710 nM, respectively.
Take `COc1ccc(-c2cccc3nc(Nc4cc(OC)c(OC)c(OC)c4)oc23)cc1`: the IC50 in data set [1] is over 10000 nM; in [2] it was over 10000 nM; in data set [3] it was 8900 nM.
With `COc1cc(Nc2nc3cccc(-c4ccccn4)c3o2)cc(OC)c1OC`, the IC50 was 110 nM in [4], 640 nM in [1], 450 nM in [2] and 760 nM in [3].
In general, GI50 refers to the concentration at which growth is held to half of that of the control. Lower therefore signals more potent growth inhibition. `COc1cc(Nc2nc3cccc(-c4ccc(NS(C)(=O)=O)cc4)c3o2)cc(OC)c1OC`: the IC50 in [4] came out at 5 nM; in [1], 150 nM; in [2], 130 nM; in [3], 47 nM. Further, in data set [5], the GI50 is 130 nM.
In the case of `Cc1cc(Nc2nc3cccc(-c4cc(F)c(CN5CCOCC5)c(F)c4)c3o2)ccc1C(=O)N(C)C`, the IC50 in data set [4] was determined as 5 nM; in data set [1], 200 nM; in data set [2] it was 160 nM; in [3] it was 140 nM. This compound also came in with a GI50 in data set [5] of 200 nM.
On to `COc1cc(Nc2nc3cccc(-c4ccc(C(=O)N5CCOCC5)c(F)c4)c3o2)cc(OC)c1OC`, for which the IC50 in data set [4] was under 3 nM; in data set [1], 63 nM; in data set [3], 22 nM. In data set [5], this compound yielded a GI50 of 150 nM.
On to `COc1cc(Nc2nc3cccc(-c4ccc5ncccc5c4)c3o2)cc(OC)c1OC`, for which the IC50 in [4] amounted to 8 nM; in data set [1], 1400 nM; in data set [2], 670 nM; in data set [3] it was 210 nM. Moreover, in data set [5], it took 500 nM to inhibit growth by half (GI50).
With `COc1cc(Nc2nc3cccc(-c4cccc(Cl)c4)c3o2)cc(OC)c1OC`, the IC50 was 440 nM in data set [4], over 10000 nM in data set [1], over 10000 nM in data set [2] and 5300 nM in data set [3].
In the case of `COc1cc(Nc2nc3cccc(-c4ccc(C(=O)N5CCOCC5)cc4)c3o2)cc(OC)c1OC`, the IC50 in [4] came out at 8 nM; in data set [1] it was 110 nM; in data set [2], 400 nM; in data set [3], 27.5 nM. Halving of growth in data set [5] (GI50) required 160 nM.
Broadly, the half-life is how long it takes for the measured level to halve. By AUC is commonly meant concentration integrated over time. Read a low AUC as low exposure. For orientation: Tmax means the time at which the peak concentration occurs. As usually defined, the Cmax is the highest concentration seen after dosing. Usually clearance stands for a measure of how efficiently the substance is removed, as volume per time. Read a high clearance as efficient removal. Consider `CNC(=O)c1ccc(Nc2nc3cccc(-c4cc(F)c(CN5CCOCC5)c(F)c4)c3o2)cc1C`, for which the IC50 in data set [4] stood at 5 nM; in data set [1], 120 nM; in [2] it was 190 nM; in data set [3], 48 nM. This compound also returned a GI50 in data set [5] of 260 nM. Moreover, the Vd in data set [6] amounted to 2.3 L/kg. Besides, in data set [7], the bioavailability was determined as 102%. Moreover, in [8], the half-life was 3.2 h. In addition, the AUC with Rattus norvegicus [9] is 2.391 µM·h; in the data set on Rattus norvegicus [11], 2.435 µM·h. Moreover, in data set [10], the Tmax was 3.5 h. Also, the Cmax in data set [12] worked out at 242 nM. In data set [13], this compound returned a clearance of 15 mL/min/kg.
For `COc1cc(Nc2nc3cccc(-c4ccc(CN5CCOCC5)cc4)c3o2)cc(OC)c1OC`, in data set [5], the GI50 turned out to be 420 nM. Also, the figures for the IC50 in data set [1], in [2] and in [3] were 310 nM, 300 nM and 82 nM, respectively.
Regarding `Cc1cc(-c2cccc3nc(Nc4ccc(N5CCN(C)CC5)cc4)oc23)ccc1C(=O)N1CCOCC1`, the IC50 in data set [4] was found to be 8 nM; in data set [1], 300 nM; in data set [2], 170 nM; in data set [3], 67 nM. In [5], the GI50 amounted to 200 nM.
With `COc1cc(Nc2nc3cccc(-c4cccc(NS(C)(=O)=O)c4)c3o2)cc(OC)c1OC`, the IC50 in [4] came out at 150 nM; in [1] it was 3600 nM; in [2], 2000 nM; in data set [3] it was 680 nM.
`Cc1cc(Nc2nc3cccc(-c4ccc(C(=O)N5CCOCC5)cc4)c3o2)ccc1C(=O)N(C)C`: the values for the IC50 in data set [4] and in [3] were 8 nM and 130 nM, respectively. The same compound showed a GI50 in data set [5] of 490 nM.
Regarding `Cc1cc(Nc2nc3cccc(-c4cc(F)c(CN5CCOCC5)c(F)c4)c3o2)ccc1C(=O)NCCCN(C)C`, the IC50 in data set [4] came out at 5 nM; in [1], 97 nM; in [2] it was 220 nM; in [3], 35 nM. In [5], this compound displayed a GI50 of 410 nM.
Consider `CN(C)C(=O)c1ccc(Nc2nc3cccc(-c4ccc(C(=O)N5CCOCC5)cc4)c3o2)cc1`, for which the IC50 in [4] turned out to be 39 nM; in data set [1] it was 730 nM; in data set [2], 620 nM; in data set [3] it was 180 nM.
